The text below walks through data of ChEMBL document CHEMBL1201862, “PubChem BioAssay data set” (2004).

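Tested at 5 concentrations; 48 h exposure; 96-well plates; endpoints linearly interpolated, else capped at highest concentration. At the GI50, growth is halved.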 The source made the active and inactive calls. Rule as the data show it: active = GI50 up to about 1.1 µM and inactive = higher.

Among the test systems are OVCAR-4; OVCAR-8; EKVX; SF-268; SF-539; SNB-75; PC-3; HT-29; NCI-H460; T47D; MDA-MB-435; MDA-MB-231; Malme-3M; SF-295; A549; SK-OV-3; HCT-15; NCI-H226; SK-MEL-5; RPMI-8226.
Assay in all cases: NCI tumour cell line growth inhibition, 48 h

Consider `Cc1cc(O)c(-c2cc(O)c(C)cc2O)cc1O`, for which the GI50 with OVCAR-4 was 5.5 µM (inactive); with OVCAR-8, 3.24 µM (inactive); in the assay on EKVX, 8.99 µM (inactive); in the assay on SF-268, 19.1 µM (inactive); with SF-539 it was 3.02 µM (inactive); in the assay on SNB-75 it was 14.9 µM (inactive). For the same compound, the GI50 in the assay on PC-3 is 11.6 µM (inactive); with HT-29 it was 17.1 µM (inactive); in the assay with NCI-H460, 18.7 µM (inactive); with T47D, 2.43 µM (inactive); in the assay on MDA-MB-435 it was 3.05 µM (inactive); in the assay on MDA-MB-231, 14.2 µM (inactive). Besides, the GI50 was 11.1 µM (inactive) in the assay with Malme-3M; 16.7 µM (inactive) in the assay with SF-295; 17.8 µM (inactive) in the assay on A549; 16.8 µM (inactive) in the assay with SK-OV-3; 7.67 µM with HCT-15; 18.7 µM (inactive) in the assay on NCI-H226. Moreover, the GI50 with SK-MEL-5 was 14.4 µM (inactive); with RPMI-8226 it was 1.66 µM (inactive).

Consider `CC(C)(C)c1cc(OCc2nnc3sc(S)nn23)c(Cl)cc1OCc1nnc2sc(S)nn12`, for which the GI50 in the assay with OVCAR-4 was 32.5 µM (inactive); in the assay with OVCAR-8, 37.2 µM (inactive); with EKVX, 30.3 µM (inactive); in the assay on SF-268 it was 24.9 µM (inactive); in the assay with SF-539, 35.7 µM (inactive); with SNB-75 it was 38.8 µM (inactive). Further, the GI50 with PC-3 was 50.9 µM (inactive); with HT-29 it was 38 µM (inactive); with NCI-H460 it was 29 µM (inactive); with T47D it was 19 µM (inactive); in the assay with MDA-MB-435 it was 23.6 µM (inactive); with MDA-MB-231, 36.6 µM (inactive). Also, the GI50 in the assay with Malme-3M was 16.6 µM (inactive); with SF-295, 27.9 µM (inactive); with A549, 35.1 µM (inactive); with SK-OV-3, 45.4 µM (inactive); in the assay with HCT-15 it was 40.6 µM; in the assay with NCI-H226, > 100 µM (inactive). Moreover, the GI50 with SK-MEL-5 was 14.5 µM (inactive); with RPMI-8226 it was 30.7 µM (inactive).

For `C[N+](C)(C)CCCCCc1c2nc(c(CCCCC[N+](C)(C)C)c3ccc([nH]3)c(CCCCC[N+](C)(C)C)c3nc(c(CCCCC[N+](C)(C)C)c4ccc1[nH]4)C=C3)C=C2`, the GI50 with OVCAR-4 was > 100 µM (inactive); with OVCAR-8, > 100 µM (inactive); in the assay with EKVX it was 99.8 µM (inactive); in the assay on SF-268, > 100 µM (inactive); in the assay on SF-539 it was > 100 µM (inactive); with SNB-75, > 100 µM (inactive). For the same compound, the GI50 in the assay with PC-3 was > 100 µM (inactive); with HT-29 it was > 100 µM (inactive); with NCI-H460, 67.3 µM (inactive); in the assay on T47D, > 100 µM (inactive); with MDA-MB-435, > 100 µM (inactive); with MDA-MB-231, > 100 µM (inactive). Besides, the GI50 with Malme-3M is > 100 µM (inactive); in the assay with SF-295, > 100 µM (inactive); with A549, 87.9 µM (inactive); in the assay on SK-OV-3, > 100 µM (inactive); in the assay on HCT-15, over 100 µM; with NCI-H226, > 100 µM (inactive). The GI50 with SK-MEL-5 and with RPMI-8226 was > 100 µM (inactive) each time.

With `CC1=C2C(=O)[C@H]3[C@@H](CC=C4C[C@@H](O)CC[C@@]43C)[C@@H]2CC[C@]12O[C@@H]1C[C@H](C)CN[C@H]1[C@H]2C` [JERVINE], the GI50 was > 44.5 µM (inactive) in the assay on OVCAR-4; > 47.1 µM (inactive) with OVCAR-8; > 45.9 µM (inactive) in the assay with EKVX; > 46.6 µM (inactive) in the assay with SF-268; > 47.9 µM (inactive) in the assay on SF-539; > 36.4 µM (inactive) with SNB-75. The GI50 in the assay on PC-3 is > 100 µM (inactive); in the assay on HT-29, > 55.2 µM (inactive); in the assay with NCI-H460, > 44.8 µM (inactive); in the assay on T47D it was > 100 µM (inactive); in the assay on MDA-MB-435, > 100 µM (inactive); with MDA-MB-231, > 100 µM (inactive). For the same compound, the GI50 is > 50.4 µM (inactive) in the assay on Malme-3M; > 44.1 µM (inactive) in the assay with SF-295; > 43 µM (inactive) in the assay with A549; > 40.6 µM (inactive) in the assay with SK-OV-3; over 50.8 µM in the assay on HCT-15; > 43.8 µM (inactive) in the assay on NCI-H226. The values for the GI50 in the assay on SK-MEL-5 and in the assay with RPMI-8226 were > 39.8 µM (inactive) and > 100 µM (inactive), respectively.
